Laboratory results: US8614313B2, “Pharmaceutical compositions comprising forms of 5-azacytidine” (Pharmion LLC, priority 2003, dated 2013)

Legend:
Assay type in all cases: physicochemical
[1] = Polymorphic form conversion: Form I slurried in various solvents, recovered solid analyzed using XRPD
From the text: (§1) X-ray powder diffraction patterns for each sample were obtained on a Scintag XDS 2000 or a Scintag X2 θ/θ diffractometer operating with copper radiation at 45 kV and 40 mA using a Kevex Psi Peltier-cooled silicon detector or a Thermo ARL Peltier-cooled solid state detector. Source slits of 2 or 4 mm and detector slits of 0.5 or 0.3 mm were used for data collection. Recrystallized material was gently milled using an agate mortar and pestle for approximately one minute. Samples were placed in a stainless steel or silicon sample holder and leveled using a glass microscope slide. Powder diffraction patterns of the samples were obtained from 2 to 42° 2θ at 1°/minute. Calibration of the X2 diffractometer is verified annually using a silicon powder standard.
Form I of 5-azacytidine was added to various solvents in sufficient quantities to form a slurry, and the slurry allowed to equilibrate for a period of time. The solid material that was present in the slurry was recovered, dried, and analyzed using XRPD (according to the XRPD protocol included in Example 5) with the aim of detecting new polymorphs and pseudopolymorphs during the transition to the dissolved state.

[2] = Polymorphic form conversion of other forms slurried in water, solid analyzed using XRPD; conditions: approximate 25 mg/mL, equilibrated 15 minutes
From the text: as §1

[3] = Dehydration of Form III by heating; TGA water content and XRPD
From the text: as §1
Thermogravimetric Analysis (TGA) measurements for each sample were collected using a Perkin Elmer TGA 7 purged with nitrogen at approximately 20 cc/minute. A 100-mg standard weight and nickel metal were used to verify balance and temperature calibrations, respectively. Samples were heated from 25° C. to 250° C. or 300° C. at 10° C./minute.
5-azacytidine Form III was heated at 105° C. for 4 hours in an attempt to dehydrate the material. […] TGA was used to measure the water content of Form III before and after drying.

Nc1ncn([C@@H]2O[C@H](CO)[C@@H](O)[C@H]2O)c(=O)n1 [Form I, 5-azacytidine]
XRPD Pattern Assignment ([1]; slurry equilibrated 19 hours in 5% Dextrose): Form III | XRPD Pattern Assignment ([1]; slurry equilibrated 19 hours in 5% Tween 80): Form III | XRPD Pattern Assignment ([1]; slurry equilibrated 19 hours in 50/50 EtOH/DI Water): Form III | XRPD Pattern Assignment ([1]; slurry equilibrated 19 hours in Acetone): Form I | XRPD Pattern Assignment ([1]; slurry equilibrated 19 hours in DI Water): Form III | XRPD Pattern Assignment ([1]; slurry equilibrated 19 hours in DMSO): Amorphous | XRPD Pattern Assignment ([1]; slurry equilibrated 19 hours in Ethyl alcohol): Form I | XRPD Pattern Assignment ([1]; slurry equilibrated 19 hours in Methyl ethyl ketone): Form I | XRPD Pattern Assignment ([1]; slurry equilibrated 19 hours in Normal Saline): Form III | XRPD Pattern Assignment ([1]; slurry equilibrated 19 hours in Polyethylene glycol): Amorphous | XRPD Pattern Assignment ([1]; slurry equilibrated 19 hours in Propylene glycol): Amorphous | XRPD Pattern Assignment ([1]; slurry equilibrated 19 hours in Water-saturated Octanol): Form III

Nc1ncn([C@@H]2O[C@H](CO)[C@@H](O)[C@H]2O)c(=O)n1 [Form I/II mixed phase, 5-azacytidine]
form observed by XRPD after slurry in water [2]: Form III

Nc1ncn([C@@H]2O[C@H](CO)[C@@H](O)[C@H]2O)c(=O)n1 [Form III, 5-azacytidine]
amount of moisture (TGA) ([3]; after drying at 105° C. for 4 hours): < 0.1% | XRPD powder pattern after dehydration ([3]; heated at 105° C. for 4 hours): matches that of Form I | amount of moisture (TGA) ([3]; initial, before drying): 6.31%
